Consider one molecule from patent publication US10766902B2, “Wee-1 inhibiting pyrazolopyrimidinone compounds” (ALMAC DISCOVERY LIMITED, priority 2016, dated 2020).

In one test the target is MET (cMet) (Homo sapiens (Human), UniProt P08581). Description: SelectScreen Kinase Profiling: MET (cMet). The following applies: tested at 300-350 nM. The format is biochemical. The text has this: (§1) Table 4 below highlights the selectivity of a representative compound of the invention, Example 5, against a panel of 50 kinases (assessed using the Invitrogen SelectScreen® Kinase Profiling Service).

A further test addresses FLT3 (Homo sapiens (Human), UniProt P36888). Description: SelectScreen Kinase Profiling: FLT3. The format is biochemical. Conditions: tested at 300-350 nM.
Source text: as §1

The next test deals with ERBB2 (HER2) (Homo sapiens (Human), UniProt P04626). Description: SelectScreen Kinase Profiling: ERBB2 (HER2). The format is biochemical. Conditions: tested at 300-350 nM.
Source text: as §1

The target in another test is ROCK1 (Homo sapiens (Human), UniProt Q13464). Description: SelectScreen Kinase Profiling: ROCK1. The following applies: tested at 300-350 nM. The format is biochemical.
Source text: as §1

The next test has as its target JAK3 (Homo sapiens (Human), UniProt P52333). Description: SelectScreen Kinase Profiling: JAK3. The format is biochemical. The following applies: tested at 300-350 nM.
Source text: as §1

The target of the next test is MARK2 (Homo sapiens (Human), UniProt Q7KZI7). Kind of test: SelectScreen Kinase Profiling: MARK2. The format is biochemical. The following applies: tested at 300-350 nM.
Source text: as §1

In a further test the target is RET (Homo sapiens (Human), UniProt P07949). Description: SelectScreen Kinase Profiling: RET. Conditions: tested at 300-350 nM. The format is biochemical.
The target in a further test is PHKG2 (Homo sapiens (Human), UniProt P15735). Kind of test: SelectScreen Kinase Profiling: PHKG2. The format is biochemical. The following applies: tested at 300-350 nM.
PHKG2, sequence (P15735 whole entry): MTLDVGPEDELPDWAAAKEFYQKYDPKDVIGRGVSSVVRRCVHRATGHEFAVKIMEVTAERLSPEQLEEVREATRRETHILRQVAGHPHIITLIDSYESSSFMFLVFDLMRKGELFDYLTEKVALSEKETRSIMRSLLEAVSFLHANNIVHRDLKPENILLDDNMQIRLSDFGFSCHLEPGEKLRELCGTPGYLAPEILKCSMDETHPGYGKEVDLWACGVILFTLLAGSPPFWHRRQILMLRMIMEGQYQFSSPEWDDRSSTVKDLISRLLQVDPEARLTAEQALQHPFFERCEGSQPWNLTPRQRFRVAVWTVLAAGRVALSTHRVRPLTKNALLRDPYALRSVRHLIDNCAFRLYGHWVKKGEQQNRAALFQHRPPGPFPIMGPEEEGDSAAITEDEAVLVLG
Source text: as §1

Test [1] has as its system phosphorylation of Cdc2 at Tyr15. Kind of test: ELISA for phosphorylation of Cdc2 at Tyr15 in HT-29 / HCT-116 cells. The format is cell-based. Conditions: Homo sapiens. On the procedure:
Method 2: Determining the Effect of Compounds on the Phosphorylation of Cdc2 at Tyr15
The colorectal cancer cell lines HT-29 and HCT-116 were purchased from the ATCC and routinely maintained in McCoy's Medium (Invitrogen) supplemented with 10% Foetal Calf Serum.
The cells were trypsinised from their growing vessel and counted, 100 μL of cell suspension containing 6000 cells was pipetted into black 96 well Co-star plates and incubated overnight to allow adherence to the surface at a temperature of 37° C. and an atmosphere of 5% CO2. Test compounds were formulated in DMSO and diluted in foetal calf serum supplemented medium. Incubating medium was removed by aspiration and diluted drug supplemented medium added to each well.
The plate was returned to the incubator for an additional eight hours at 37° C. and an atmosphere of 5% CO2. Post incubation, the drug supplemented medium was aspirated from each well and the cells were washed once in ice-cold phosphate buffered saline (PBS). 100 μL of cell lysis buffer (Cell Signalling Technologies #9803) containing 20 mM Tris, 150 mM NaCl, 1 mM EDTA, 1 mM EGTA, 1% Triton-X100, 2.5 mM sodium pyrophosphate, 1 mM glycerophosphate, 1 mM Na3VO4 and 1 μg/mL leupeptin was added to each well of the 96 well plate and incubated at 4° C. for 30 min. The samples on the plate were snap frozen at −80° C. until required. Immediately before the continuation of the assay, the sample plate was thawed and centrifuged at 4° C. for 10 min and the supernatant transferred to secondary tubes or 96 well plate.
Cell supernatant was mixed in a ratio of 1:1 with sample dilutent buffer and vortexed for one minute. 100 μL of diluted sample was pipetted into pre-coated plates containing a rabbit polyclonal antibody for phospho-cdc2 (Tyr15) (Cell Signalling Technologies PathScan kit #7176). The plate was sealed and incubated overnight at 4° C.
The plate seal was removed and the well contents aspirated, followed by 3×5 min washes with 200 μL of diluted wash buffer. Between each wash the plate was tapped firmly onto blotting paper to ensure the removal of all kit solution. 100 μL of kit detection antibody was added to each well and the plate re-sealed and incubated at 37° C. for 1 h. Post incubation the plate was washed and processed in a similar manner to that previously described.
100 μL of horseradish peroxidise-linked secondary antibody was added to each test well, the plate sealed and incubated for thirty minutes at 37° C. Post incubation, the plate was washed as previously stated, followed by the addition of 100 μL of 3,3′,5,5′ tetramethylbenzidine (TMB reagent). The plate was sealed and incubated at RT for 30 min.
100 μL of stop solution was added to each well and the underside of the plate wiped with a lint-free tissue, prior to spectrophotometric determination. Absorbance from each well was read at 450 nm within 30 min of the addition of the stop solution.
The percentage of phospho-cdc2 was calculated compared to DMSO control and plotted versus the concentration of inhibitor using GraphPad Prism. Data was fitted using non-linear regression analysis and IC50 values generated.

The next test has as its target KDR (VEGFR2) (Homo sapiens (Human), UniProt P35968). Description: SelectScreen Kinase Profiling: KDR (VEGFR2). The format is biochemical. Conditions: tested at 300-350 nM.
Source text: as §1

The next test concerns the target LCK (Homo sapiens (Human), UniProt P06239). Kind of test: SelectScreen Kinase Profiling: LCK. The format is biochemical. Conditions: tested at 300-350 nM.
The subject of another test is SK-LU-1 cells. Description: Cell viability (CellTiter-Glo), SK-LU-1. The format is cell-based. Conditions: Homo sapiens, SK-LU-1, 144 h; cell viability after 6 days. How it is done:
(§2) All cell lines (HT29, A427, A498, SKLU-1) were obtained from the American Type Culture Collection (ATCC), maintained in the recommended media supplemented with 10% (v/v) FBS, 1% (v/v) Penicillin/streptomycin and kept at 37° C. in a humidified atmosphere with 5% CO2. Cells were seeded in 96 wp format typically at a seeding density of 3500-5000 cells/well and treated after 24 hours with increasing concentration of compound from 0 to 100 μM in ½ log unit increments. Cell viability was assessed after 72 hours (HT29, A427) or after 6 days (SKLU-1, A498) by CellTiter-Glo® as recommended by the manufacturer's instructions (Promega). Analysis and EC50 values were derived using GraphPadPrism.
(ATP-based viability assays read luminescence as a measure of living cells.)

A further test deals with INSR (Homo sapiens (Human), UniProt P06213). Kind of test: SelectScreen Kinase Profiling: INSR. The format is biochemical. Conditions: tested at 300-350 nM.
Source text: as §1

The target in another test is CSNK1G2 (CK1 gamma 2) (Homo sapiens (Human), UniProt P78368). Kind of test: SelectScreen Kinase Profiling: CSNK1G2 (CK1 gamma 2). The format is biochemical. Conditions: tested at 300-350 nM.
Source text: as §1

The next test addresses PDGFRB (PDGFR beta) (Homo sapiens (Human), UniProt P09619). Description: SelectScreen Kinase Profiling: PDGFRB (PDGFR beta). Conditions: tested at 300-350 nM. The format is biochemical.
Source text: as §1

A further test deals with ACVR1B (ALK4) (Homo sapiens (Human), UniProt P36896). Kind of test: SelectScreen Kinase Profiling: ACVR1B (ALK4). The following applies: tested at 300-350 nM. The format is biochemical.
ACVR1B (ALK4), sequence (P36896 24-505): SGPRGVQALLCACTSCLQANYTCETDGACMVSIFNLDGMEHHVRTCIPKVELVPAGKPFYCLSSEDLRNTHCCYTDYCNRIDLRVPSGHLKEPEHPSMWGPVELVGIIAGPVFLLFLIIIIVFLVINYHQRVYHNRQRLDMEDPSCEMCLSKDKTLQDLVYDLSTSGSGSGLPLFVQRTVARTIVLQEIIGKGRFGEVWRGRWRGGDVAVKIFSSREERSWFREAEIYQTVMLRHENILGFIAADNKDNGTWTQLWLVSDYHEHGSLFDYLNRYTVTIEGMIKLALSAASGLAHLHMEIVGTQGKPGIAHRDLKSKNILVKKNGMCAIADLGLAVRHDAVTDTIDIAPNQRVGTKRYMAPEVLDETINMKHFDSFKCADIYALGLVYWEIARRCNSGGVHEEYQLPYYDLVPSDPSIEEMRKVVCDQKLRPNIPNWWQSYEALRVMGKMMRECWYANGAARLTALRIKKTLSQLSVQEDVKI
Source text: as §1

In the next test the target is MAPK14 (p38 alpha) (Homo sapiens (Human), UniProt Q16539). Description: SelectScreen Kinase Profiling: MAPK14 (p38 alpha). The format is biochemical. The following applies: tested at 300-350 nM.
MAPK14 (p38 alpha), sequence (Q16539 whole entry): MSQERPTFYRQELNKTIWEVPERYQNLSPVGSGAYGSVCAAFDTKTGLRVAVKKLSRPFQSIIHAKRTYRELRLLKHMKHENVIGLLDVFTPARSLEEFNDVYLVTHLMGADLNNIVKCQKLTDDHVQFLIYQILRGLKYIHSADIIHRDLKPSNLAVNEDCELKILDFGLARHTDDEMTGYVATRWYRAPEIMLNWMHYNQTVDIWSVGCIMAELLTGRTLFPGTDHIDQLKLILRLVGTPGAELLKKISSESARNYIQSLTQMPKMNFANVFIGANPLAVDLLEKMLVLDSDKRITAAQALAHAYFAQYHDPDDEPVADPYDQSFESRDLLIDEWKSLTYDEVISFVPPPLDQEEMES
Source text: as §1

The target of a further test is BTK (Homo sapiens (Human), UniProt Q06187). Kind of test: SelectScreen Kinase Profiling: BTK. The format is biochemical. The following applies: tested at 300-350 nM.
Source text: as §1

In the next test the test system is HT29 cells. Kind of test: Cell viability (CellTiter-Glo), HT29. The following applies: Homo sapiens, HT-29; cell viability after 72 hours. The format is cell-based. On the procedure:
as §2

Where two headings read alike, the source gives them in different places.

PDGFRB (PDGFR beta), sequence (P09619 33-1106): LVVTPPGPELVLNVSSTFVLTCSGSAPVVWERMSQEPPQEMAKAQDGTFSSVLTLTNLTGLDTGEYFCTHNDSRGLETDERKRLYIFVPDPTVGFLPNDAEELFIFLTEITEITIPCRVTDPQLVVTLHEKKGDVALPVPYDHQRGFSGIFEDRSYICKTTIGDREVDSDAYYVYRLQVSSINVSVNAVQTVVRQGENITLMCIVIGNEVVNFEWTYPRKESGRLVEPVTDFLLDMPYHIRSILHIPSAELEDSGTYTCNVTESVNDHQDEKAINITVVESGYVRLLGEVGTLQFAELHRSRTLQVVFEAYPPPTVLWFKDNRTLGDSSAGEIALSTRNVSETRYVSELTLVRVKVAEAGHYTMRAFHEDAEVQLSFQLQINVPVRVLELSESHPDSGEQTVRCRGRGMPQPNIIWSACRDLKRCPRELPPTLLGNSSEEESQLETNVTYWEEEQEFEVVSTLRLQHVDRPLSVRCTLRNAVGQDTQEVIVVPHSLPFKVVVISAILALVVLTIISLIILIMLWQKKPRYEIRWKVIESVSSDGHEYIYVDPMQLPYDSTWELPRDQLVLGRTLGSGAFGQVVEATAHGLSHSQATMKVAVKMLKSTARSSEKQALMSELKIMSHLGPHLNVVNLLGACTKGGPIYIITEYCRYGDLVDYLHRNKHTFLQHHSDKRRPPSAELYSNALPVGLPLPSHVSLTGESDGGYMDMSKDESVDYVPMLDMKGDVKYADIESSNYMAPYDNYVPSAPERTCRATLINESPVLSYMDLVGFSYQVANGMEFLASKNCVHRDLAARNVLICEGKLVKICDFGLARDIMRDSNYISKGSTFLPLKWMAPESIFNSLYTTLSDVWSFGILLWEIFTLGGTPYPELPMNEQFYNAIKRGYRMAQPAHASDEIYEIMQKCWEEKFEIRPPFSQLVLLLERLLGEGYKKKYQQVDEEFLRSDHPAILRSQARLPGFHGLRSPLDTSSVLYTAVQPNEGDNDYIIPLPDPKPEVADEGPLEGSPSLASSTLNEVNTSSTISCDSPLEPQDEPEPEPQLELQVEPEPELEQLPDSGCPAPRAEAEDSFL
FLT3, sequence (P36888 27-993): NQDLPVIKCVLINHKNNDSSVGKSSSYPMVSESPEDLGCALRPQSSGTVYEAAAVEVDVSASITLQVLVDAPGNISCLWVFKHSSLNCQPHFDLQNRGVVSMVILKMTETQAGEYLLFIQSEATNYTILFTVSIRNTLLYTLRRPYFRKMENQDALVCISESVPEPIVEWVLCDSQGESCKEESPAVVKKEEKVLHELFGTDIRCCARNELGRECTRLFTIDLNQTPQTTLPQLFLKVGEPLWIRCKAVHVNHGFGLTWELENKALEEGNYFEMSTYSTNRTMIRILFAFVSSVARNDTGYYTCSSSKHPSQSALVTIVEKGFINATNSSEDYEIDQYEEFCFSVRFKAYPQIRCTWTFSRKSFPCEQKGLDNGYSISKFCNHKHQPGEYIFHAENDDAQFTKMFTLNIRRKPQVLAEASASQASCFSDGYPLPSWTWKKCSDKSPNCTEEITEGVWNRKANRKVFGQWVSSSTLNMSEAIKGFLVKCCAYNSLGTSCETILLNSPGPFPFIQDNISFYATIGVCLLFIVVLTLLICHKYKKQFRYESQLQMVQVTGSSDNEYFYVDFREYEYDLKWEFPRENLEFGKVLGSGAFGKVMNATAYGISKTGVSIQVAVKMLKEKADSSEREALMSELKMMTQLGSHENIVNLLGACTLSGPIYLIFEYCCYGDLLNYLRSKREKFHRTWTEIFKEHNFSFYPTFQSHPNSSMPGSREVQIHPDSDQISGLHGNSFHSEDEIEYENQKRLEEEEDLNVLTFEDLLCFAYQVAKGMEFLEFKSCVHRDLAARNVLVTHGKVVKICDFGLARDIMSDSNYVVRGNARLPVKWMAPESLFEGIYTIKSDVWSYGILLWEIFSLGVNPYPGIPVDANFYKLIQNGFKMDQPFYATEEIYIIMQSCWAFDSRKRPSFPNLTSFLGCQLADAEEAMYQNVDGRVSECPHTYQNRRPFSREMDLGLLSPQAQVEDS
LCK, sequence (P06239 whole entry): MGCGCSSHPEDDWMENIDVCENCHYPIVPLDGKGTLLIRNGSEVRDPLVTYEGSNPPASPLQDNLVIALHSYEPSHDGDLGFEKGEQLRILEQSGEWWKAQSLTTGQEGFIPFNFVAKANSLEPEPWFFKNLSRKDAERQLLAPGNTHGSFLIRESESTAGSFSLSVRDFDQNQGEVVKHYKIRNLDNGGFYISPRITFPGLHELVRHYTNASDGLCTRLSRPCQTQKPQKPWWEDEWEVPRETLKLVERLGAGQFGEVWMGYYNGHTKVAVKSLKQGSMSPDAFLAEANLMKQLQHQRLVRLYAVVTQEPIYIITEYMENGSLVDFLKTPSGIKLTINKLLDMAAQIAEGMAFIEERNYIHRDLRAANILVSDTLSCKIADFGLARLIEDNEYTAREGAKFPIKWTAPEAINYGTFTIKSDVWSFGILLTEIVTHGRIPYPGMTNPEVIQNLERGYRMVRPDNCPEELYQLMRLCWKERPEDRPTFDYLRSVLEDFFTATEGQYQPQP
JAK3, sequence (P52333 whole entry): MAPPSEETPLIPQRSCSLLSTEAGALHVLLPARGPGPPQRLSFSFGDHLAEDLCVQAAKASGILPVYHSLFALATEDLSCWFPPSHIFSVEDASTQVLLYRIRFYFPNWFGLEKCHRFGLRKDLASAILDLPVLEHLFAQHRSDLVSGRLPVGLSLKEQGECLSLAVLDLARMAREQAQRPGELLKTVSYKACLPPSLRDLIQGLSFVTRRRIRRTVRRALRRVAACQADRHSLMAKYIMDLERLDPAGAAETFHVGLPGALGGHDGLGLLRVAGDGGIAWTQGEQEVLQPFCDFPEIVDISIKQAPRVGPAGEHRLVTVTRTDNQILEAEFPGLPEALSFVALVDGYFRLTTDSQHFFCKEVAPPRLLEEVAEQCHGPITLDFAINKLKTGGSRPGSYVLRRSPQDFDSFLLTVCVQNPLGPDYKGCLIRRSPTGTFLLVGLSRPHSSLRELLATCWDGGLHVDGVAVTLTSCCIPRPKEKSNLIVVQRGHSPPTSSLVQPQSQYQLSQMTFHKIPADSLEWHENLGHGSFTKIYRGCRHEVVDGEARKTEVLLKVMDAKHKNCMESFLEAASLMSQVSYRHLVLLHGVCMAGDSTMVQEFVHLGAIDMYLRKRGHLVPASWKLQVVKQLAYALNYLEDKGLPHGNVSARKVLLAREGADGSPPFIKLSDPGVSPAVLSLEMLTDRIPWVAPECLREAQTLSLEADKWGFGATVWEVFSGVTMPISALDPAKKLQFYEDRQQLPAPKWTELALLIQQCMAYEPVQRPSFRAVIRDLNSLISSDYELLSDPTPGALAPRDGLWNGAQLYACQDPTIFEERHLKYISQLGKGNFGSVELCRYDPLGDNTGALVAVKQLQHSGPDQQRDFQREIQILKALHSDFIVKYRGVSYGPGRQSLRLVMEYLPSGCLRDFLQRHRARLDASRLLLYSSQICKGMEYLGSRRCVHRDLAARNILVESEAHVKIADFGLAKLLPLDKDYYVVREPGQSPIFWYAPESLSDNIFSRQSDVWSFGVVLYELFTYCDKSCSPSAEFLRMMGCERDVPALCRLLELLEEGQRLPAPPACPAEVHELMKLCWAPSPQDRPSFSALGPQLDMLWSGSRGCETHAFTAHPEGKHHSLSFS

In the case of `C=CCn1c(=O)c2cnc(Nc3ccc(N4CCN(C)CC4)cc3)nc2n1-c1cccc(N=S(C)(C)=O)n1` [Example 5, 1-(6-{[Dimethyl(oxo)-λ^6-sulfanylidene]amino}pyridine-2-yl)-6-{[4-(4-methylpiperazin-1-yl)phenyl]amino}-2-(prop-2-en-1-yl)-1H,2H,3H-pyrazolo[3,4-d]pyrimidin-3-one], on MET (cMet), the “inhibition of MET (cMet)” value is given as “− (inhibition under 50% (tested at 300-350 nM))”. The “inhibition of FLT3” value on FLT3 is on record as “− (inhibition under 50% (tested at 300-350 nM))”. Besides, at ERBB2 (HER2), the “inhibition of ERBB2 (HER2)” value is recorded as “− (inhibition under 50% (tested at 300-350 nM))”. On ROCK1, the “inhibition of ROCK1” value was “− (inhibition under 50% (tested at 300-350 nM))”. Moreover, the “inhibition of JAK3” value against JAK3 was “− (inhibition under 50% (tested at 300-350 nM))”. In addition, on MARK2, the “inhibition of MARK2” value is on record as “− (inhibition under 50% (tested at 300-350 nM))”. Moreover, the “inhibition of RET” value at RET is on record as “− (inhibition under 50% (tested at 300-350 nM))”. Besides, at PHKG2, the “inhibition of PHKG2” value was “− (inhibition under 50% (tested at 300-350 nM))”. The EC50 in test [1] (8 h, Table 2, colorectal cancer cells, eight hours incubation, read-out: ELISA p-CDC2 EC50) was 12 nM; in [1] (Table 3, read-out: ELISA p-CDC2 EC50), 12 nM; in test [1] (Table 5, data obtained as described in the experimental section of the current invention, read-out: ELISA/nM), 12 nM; in the test on SK-LU-1 cells, 0.012 µM; with HT29 cells it was 0.033 µM. On KDR (VEGFR2), the “inhibition of KDR (VEGFR2)” value is “− (inhibition under 50% (tested at 300-350 nM))”. The “inhibition of LCK” value against LCK was “− (inhibition under 50% (tested at 300-350 nM))”. Also, the “inhibition of INSR” value against INSR is “− (inhibition under 50% (tested at 300-350 nM))”. Besides, the “inhibition of CSNK1G2 (CK1 gamma 2)” value against CSNK1G2 (CK1 gamma 2) is listed as “− (inhibition under 50% (tested at 300-350 nM))”. In addition, the “inhibition of PDGFRB (PDGFR beta)” value against PDGFRB (PDGFR beta) is listed as “− (inhibition under 50% (tested at 300-350 nM))”. In addition, the “inhibition of ACVR1B (ALK4)” value at ACVR1B (ALK4) is given as “− (inhibition under 50% (tested at 300-350 nM))”. For the same molecule, the “inhibition of MAPK14 (p38 alpha)” value at MAPK14 (p38 alpha) is reported as “− (inhibition under 50% (tested at 300-350 nM))”. In addition, the “inhibition of BTK” value against BTK is “− (inhibition under 50% (tested at 300-350 nM))”.
